Source: US7217730B2, “Method for the use of pyranoindole derivatives to treat infection with Hepatitis C virus” (Wyeth, priority 2002, dated 2007)

What was measured:
[1] = molecular target: BB7 (RNA-dependent RNA polymerase hepatitis C virus protein sequence derived from HCV replicon) (Hepatitis C virus genotype 1b, UniProt Q9WMX2); assay: Hepatitis C polymerase inhibition, BB7 sequence; format: biochemical; details: Table 1B
[2] = molecular target: T1, NS5B from the BK strain (genotype 1b) (Hepatitis C virus genotype 1b, UniProt P26663); assay: Hepatitis C polymerase inhibition, NS5B BK strain, 33P-GTP filter assay; format: biochemical; details: Table 1B; NS5B BK strain; read-out: BK IC50
T1 construct: NS5B from the BK strain (genotype 1b) is expressed in E. coli as a protein in which the 21 C-terminal amino acids are replaced; made in house; host or cells: E. coli
Outline: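 E. coli-expressed NS5B (BK, genotype 1b) with the 21 C-terminal residues replaced by a linker-His6 tag was preincubated with compound for 15 min at room temperature. It then extended a hairpin-primed heteropolymeric RNA (~3 nM, ~760 nt product) with α-[33P]-GTP for 2 h at 22–25° C. The reaction was stopped with EDTA, and incorporated label was counted on filters.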

Sequence of BB7 (RNA-dependent RNA polymerase hepatitis C virus protein sequence derived from HCV replicon) (Q9WMX2 2420-3010): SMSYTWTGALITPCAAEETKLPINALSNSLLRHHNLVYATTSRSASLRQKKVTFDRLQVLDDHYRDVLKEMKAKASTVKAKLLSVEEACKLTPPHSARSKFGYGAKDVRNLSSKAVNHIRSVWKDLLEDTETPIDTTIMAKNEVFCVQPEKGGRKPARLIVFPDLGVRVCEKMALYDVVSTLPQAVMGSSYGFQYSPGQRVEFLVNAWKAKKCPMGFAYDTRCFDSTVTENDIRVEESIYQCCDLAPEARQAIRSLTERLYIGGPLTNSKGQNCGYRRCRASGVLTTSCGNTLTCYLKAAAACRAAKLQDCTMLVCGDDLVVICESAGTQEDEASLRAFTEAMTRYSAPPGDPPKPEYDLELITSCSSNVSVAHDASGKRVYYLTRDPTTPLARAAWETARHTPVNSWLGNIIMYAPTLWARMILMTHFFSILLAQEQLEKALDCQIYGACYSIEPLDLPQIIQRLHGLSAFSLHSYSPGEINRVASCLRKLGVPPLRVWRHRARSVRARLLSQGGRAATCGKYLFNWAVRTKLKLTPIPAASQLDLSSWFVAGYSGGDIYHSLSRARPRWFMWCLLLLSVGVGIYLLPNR
T1 sequence (P26663 2420-2989): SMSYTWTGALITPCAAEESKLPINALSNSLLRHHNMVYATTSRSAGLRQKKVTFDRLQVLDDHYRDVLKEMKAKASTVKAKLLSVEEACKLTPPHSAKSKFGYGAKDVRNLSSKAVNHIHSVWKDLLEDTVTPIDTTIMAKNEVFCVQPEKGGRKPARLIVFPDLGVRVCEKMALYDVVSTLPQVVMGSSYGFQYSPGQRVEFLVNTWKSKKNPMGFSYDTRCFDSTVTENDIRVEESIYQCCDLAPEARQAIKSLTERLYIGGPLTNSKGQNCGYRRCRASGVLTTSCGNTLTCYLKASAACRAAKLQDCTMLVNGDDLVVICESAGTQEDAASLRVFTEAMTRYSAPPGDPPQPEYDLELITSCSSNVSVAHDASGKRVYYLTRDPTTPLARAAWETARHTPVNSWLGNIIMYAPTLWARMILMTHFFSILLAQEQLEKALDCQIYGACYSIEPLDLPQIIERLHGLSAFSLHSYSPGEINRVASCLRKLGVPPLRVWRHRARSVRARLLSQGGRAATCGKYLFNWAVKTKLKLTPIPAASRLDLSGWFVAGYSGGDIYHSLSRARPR

Question: With `CC[C@H](C)[C@]1(CC(=O)O)OCCc2c1[nH]c1c(C)ccc(C#N)c21` [Example 293, (1S,10S)-[5-cyano-8-methyl-1-(1-methylpropyl)-1,3,4,9-tetrahydropyrano[3,4-b]indol-1-yl]acetic acid] as the molecule, how does the IC50 [1] read?
Answer: Its IC50 is greater than 30 µM.

Question: What about the IC50 [2] of the same molecule?
Answer: The IC50 was greater than 30 µM.

Question: With `CCCC1(CC(=O)O)OCCc2c1[nH]c1c(CC)ccc(C#N)c21` (centres unmarked) [Example 295, (5-cyano-8-ethyl-1-propyl-1,3,4,9-tetrahydropyrano[3,4-b]indol-1-yl)acetic acid] as the molecule, how does the IC50 [1] read?
Answer: Its IC50 is 3.1 µM.

Question: What about the IC50 [2] of the same molecule?
Answer: The IC50 was 3.6 µM.

Question: `CCCCC1(CC(=O)O)OCCc2c1[nH]c1c(CC)ccc(C#N)c21` (centres unmarked) [Example 296, (1-butyl-5-cyano-8-ethyl-1,3,4,9-tetrahydropyrano[3,4-b]indol-1-yl)acetic acid] was tested. Which IC50 [1] did it give?
Answer: The IC50 was 6.3 µM.

Question: What about the IC50 [2] of the same molecule?
Answer: Its IC50 is 7.2 µM.

Question: For `CCCC1(CC(=O)O)OCCc2c1[nH]c1c(C(C)C)ccc(C#N)c21` (centres unmarked) [Example 297, [5-cyano-8-(1-methylethyl)-1-propyl-1,3,4,9-tetrahydropyrano[3,4-b]indol-1-yl]acetic acid], which IC50 [1] is on record?
Answer: Its IC50 is 2.8 µM.

Question: What about the IC50 [2] of the same molecule?
Answer: The IC50 was 1.8 µM.

Question: Which IC50 [1] does the source give for `CCCC1(CC(=O)O)OCCc2c1[nH]c1c(C)ccc([N+](=O)[O-])c21` (centres unmarked) [Example 298, (8-methyl-5-nitro-1-propyl-1,3,4,9-tetrahydropyrano[3,4-b]indol-1-yl)acetic acid] here?
Answer: Its IC50 is 0.5 µM.

Question: What about the IC50 [2] of the same molecule?
Answer: Its IC50 is 0.3 µM.

Question: How did the IC50 [1] turn out when `Cc1ccc([N+](=O)[O-])c2c3c([nH]c12)C(CC(=O)O)(C1CCC1)OCC3` (centres unmarked) [Example 299, (1-cyclobutyl-8-methyl-5-nitro-1,3,4,9-tetrahydropyrano[3,4-b]indol-1-yl]acetic acid] was run?
Answer: Its IC50 is 0.9 µM.

Question: And the IC50 [2]?
Answer: Its IC50 is 0.5 µM.

Question: For `N#Cc1ccc(F)c2[nH]c3c(c12)CCOC3(CCC(F)(F)F)CC(=O)O` (centres unmarked) [Example 301, [5-cyano-8-fluoro-1-(3,3,3-trifluoropropyl)-1,3,4,9-tetrahydropyrano[3,4-b]indol-1-yl]acetic acid], which IC50 [1] is on record?
Answer: Its IC50 is 11.3 µM.

Question: And the IC50 [2]?
Answer: The IC50 was 5.4 µM.

Question: With `C=CCCC1(CC(=O)O)OCCc2c1[nH]c1c(F)ccc(C#N)c21` (centres unmarked) [Example 302, [1-(3-butenyl)-5-cyano-8-fluoro-1,3,4,9-tetrahydropyrano[3,4-b]indol-1-yl]acetic acid] as the molecule, how does the IC50 [1] read?
Answer: Its IC50 is 18 µM.

Question: And the IC50 [2]?
Answer: The IC50 was 4 µM.

Question: What does the source list for `COCC1(CC(=O)O)OCCc2c1[nH]c1c(F)ccc(C#N)c21` (centres unmarked) [Example 303, (5-cyano-8-fluoro-1-methoxymethyl-1,3,4,9-tetrahydropyrano[3,4-b]indol-1-yl)acetic acid]?
Answer: IC50 [1]: > 30 µM; IC50 [2]: > 30 µM

Question: Which results are given for `COCCC1(CC(=O)O)OCCc2c1[nH]c1c(F)ccc(C#N)c21` (centres unmarked) [Example 304, [5-cyano-8-fluoro-1-(2-methoxyethyl)-1,3,4,9-tetrahydropyrano[3,4-b]indol-1-yl]acetic acid]?
Answer: IC50 [1]: > 30 µM; IC50 [2]: > 30 µM

Question: Which results are given for `CSCC1(CC(=O)O)OCCc2c1[nH]c1c(F)ccc(C#N)c21` (centres unmarked) [Example 305, (5-cyano-8-fluoro-1-methylthiomethyl-1,3,4,9-tetrahydropyrano[3,4-b]indol-1-yl)acetic acid]?
Answer: IC50 [1]: > 30 µM; IC50 [2]: > 30 µM

Question: Which results are given for `N#Cc1ccc(F)c2[nH]c3c(c12)CCOC3(CC(=O)O)C1CC1` (centres unmarked) [Example 306, (5-cyano-1-cyclopropyl-8-fluoro-1,3,4,9-tetrahydropyrano[3,4-b]indol-1-yl)acetic acid]?
Answer: IC50 [1]: > 30 µM; IC50 [2]: > 30 µM

Question: `N#Cc1ccc(F)c2[nH]c3c(c12)CCOC3(CC(=O)O)C1CCC1` (centres unmarked) [Example 307, (5-cyano-1-cyclobutyl-8-fluoro-1,3,4,9-tetrahydropyrano[3,4-b]indol-1-yl)acetic acid] was tested. Which IC50 [1] did it give?
Answer: Its IC50 is 9.6 µM.

Question: And the IC50 [2]?
Answer: Its IC50 is 5.8 µM.

Question: With `N#Cc1ccc(F)c2[nH]c3c(c12)CCOC3(CC(=O)O)C1CCCC1` (centres unmarked) [Example 308, (5-cyano-1-cyclopentyl-8-fluoro-1,3,4,9-tetrahydropyrano[3,4-b]indol-1-yl)acetic acid] as the molecule, how does the IC50 [1] read?
Answer: Its IC50 is greater than 30 µM.

Question: What about the IC50 [2] of the same molecule?
Answer: The IC50 was greater than 30 µM.

Question: With `N#Cc1ccc(F)c2[nH]c3c(c12)CCOC3(CC(=O)O)CC1CCCC1` (centres unmarked) [Example 310, (5-cyano-1-cyclopentylmethyl-8-fluoro-1,3,4,9-tetrahydropyrano[3,4-b]indol-1-yl)acetic acid] as the molecule, how does the IC50 [1] read?
Answer: Its IC50 is greater than 25 µM.

Question: What about the IC50 [2] of the same molecule?
Answer: Its IC50 is greater than 25 µM.

Question: What does the source list for `CC[C@H](C)[C@@]1(CC(=O)O)OCCc2c1[nH]c1c(F)ccc(C#N)c21` [Example 315, (1R,10S)-[5-cyano-8-fluoro-1-(1-methylpropyl)-1,3,4,9-tetrahydropyrano[3,4-b]indol-1-yl]acetic acid]?
Answer: IC50 [1]: 2.1 µM; IC50 [2]: 0.4 µM

Question: For `CC[C@H](C)[C@]1(CC(=O)O)OCCc2c1[nH]c1c(F)ccc(C#N)c21` [Example 316, (1S,10S)-[5-cyano-8-fluoro-1-(1-methylpropyl)-1,3,4,9-tetrahydropyrano[3,4-b]indol-1-yl]acetic acid], which IC50 [1] is on record?
Answer: Its IC50 is greater than 30 µM.

Question: What about the IC50 [2] of the same molecule?
Answer: The IC50 was greater than 30 µM.

Question: Which results are given for `Cc1cc(F)c(C#N)c2c3c([nH]c12)C(CC(=O)O)(C1CCC1)OCC3` (centres unmarked) [Example 317, (5-cyano-1-cyclobutyl-6-fluoro-8-methyl-1,3,4,9-tetrahydropyrano[3,4-b]indol-1-yl)acetic acid]?
Answer: IC50 [1]: 0.9 µM; IC50 [2]: 0.6 µM

Question: How did the IC50 [1] turn out when `CC[C@H](C)[C@@]1(CC(=O)O)OCCc2c1[nH]c1c(C)cc(F)c(C#N)c21` [Example 319, (1R,10S)-[5-cyano-6-fluoro-8-methyl-1-(1-methylpropyl)-1,3,4,9-tetrahydropyrano[3,4-b]indol-1-yl]acetic acid] was run?
Answer: The IC50 was 0.08 µM.

Question: And the IC50 [2]?
Answer: The IC50 was 0.06 µM.

Question: For `CC[C@H](C)[C@]1(CC(=O)O)OCCc2c1[nH]c1c(C)cc(F)c(C#N)c21` [Example 320, (1S,10S)-[5-cyano-6-fluoro-8-methyl-1-(1-methylpropyl)-1,3,4,9tetrahydropyrano[3,4-b]indol-1-yl]acetic acid], which IC50 [1] is on record?
Answer: The IC50 was 6 µM.

Question: And the IC50 [2]?
Answer: Its IC50 is 2.9 µM.

Question: How did the IC50 [1] turn out when `CCCC1(CC(=O)O)OCCc2c1[nH]c1c(Cl)ccc(C#N)c21` (centres unmarked) [Example 321, (8-chloro-5-cyano-1-propyl-1,3,4,9-tetrahydropyrano[3,4-b]indol-1-yl)acetic acid] was run?
Answer: The IC50 was 0.6 µM.

Question: What about the IC50 [2] of the same molecule?
Answer: The IC50 was 0.3 µM.

Question: With `CCC[C@]1(CC(=O)O)OCCc2c1[nH]c1c(Cl)ccc(C#N)c21` [Example 322, (1R)-(8-chloro-5-cyano-1-propyl-1,3,4,9-tetrahydropyrano[3,4-b]indol-1-yl)acetic acid] as the molecule, how does the IC50 [1] read?
Answer: Its IC50 is 0.16 µM.

Question: And the IC50 [2]?
Answer: The IC50 was 0.04 µM.

Question: What does the source list for `CCC[C@@]1(CC(=O)O)OCCc2c1[nH]c1c(Cl)ccc(C#N)c21` [Example 323, (1S)-(8-chloro-5-cyano-1-propyl-1,3,4,9-tetrahydropyrano[3,4-b]indol-1-yl)acetic acid]?
Answer: IC50 [1]: 11 µM; IC50 [2]: 4.9 µM

Question: Which IC50 [1] does the source give for `CC[C@H](C)[C@@]1(CC(=O)O)OCCc2c1[nH]c1c(Cl)ccc(C#N)c21` [Example 325, (1R,10S)-[8-Chloro-5-cyano-1-(1-methylpropyl)-1,3,4,9-tetrahydropyrano[3,4-b]indol-1yl]acetic acid] here?
Answer: The IC50 was 0.19 µM.

Question: And the IC50 [2]?
Answer: Its IC50 is 0.08 µM.

Question: What does the source list for `CC[C@H](C)[C@]1(CC(=O)O)OCCc2c1[nH]c1c(Cl)ccc(C#N)c21` [Example 326, (1S,10S)-[8-Chloro-5-cyano-1-(1-methylpropyl)-1,3,4,9-tetrahydropyrano[3,4-b]indol-1-yl]acetic acid]?
Answer: IC50 [1]: 9.4 µM; IC50 [2]: 6.5 µM

Question: With `N#Cc1ccc(Cl)c2[nH]c3c(c12)CCOC3(CC(=O)O)C1CCC1` (centres unmarked) [Example 327, (8-chloro-5-cyano-1-cyclobutyl-1,3,4,9-tetrahydropyrano[3,4-b]indol-1-yl)acetic acid] as the molecule, how does the IC50 [1] read?
Answer: Its IC50 is 1.7 µM.

Question: And the IC50 [2]?
Answer: The IC50 was 0.8 µM.

Question: Which IC50 [1] does the source give for `CCCC1(C(=O)O)OCCc2c1[nH]c1ccc(Cl)c(Cl)c21` (centres unmarked) [Example 328, (5,6-dichloro-1-propyl-1,3,4,9-tetrahydropyrano[3,4-b]indol-1-yl)carboxylic acid] here?
Answer: Its IC50 is 3.9 µM.

Question: What about the IC50 [2] of the same molecule?
Answer: Its IC50 is 4.3 µM.

Question: How did the IC50 [1] turn out when `CCCC1(C(=O)O)OCCc2c1[nH]c1c(Cl)ccc(Cl)c21` (centres unmarked) [Example 329, (5,8-dichloro-1-propyl-1,3,4,9-tetrahydropyrano[3,4-b]indol-1-yl)carboxylic acid] was run?
Answer: The IC50 was 1.5 µM.

Question: What about the IC50 [2] of the same molecule?
Answer: Its IC50 is 0.6 µM.

Question: What does the source list for `CCCC1(C(=O)O)OCCc2c1[nH]c1c(C)ccc(Cl)c21` (centres unmarked) [Example 330, (5-chloro-8-methyl-1-propyl-1,3,4,9-tetrahydropyrano[3,4-b]indol-1-yl)carboxylic acid]?
Answer: IC50 [1]: 8.4 µM; IC50 [2]: 1.6 µM

Question: For `CCCC1(C(=O)O)OCCc2c1[nH]c1c(Cl)ccc(C(F)(F)F)c21` (centres unmarked) [Example 331, (8-chloro-5-trifluoromethyl-1-propyl-1,3,4,9-tetrahydropyrano[3,4-b]indol-1-yl)carboxylic acid], which IC50 [1] is on record?
Answer: Its IC50 is 2.5 µM.

Question: What about the IC50 [2] of the same molecule?
Answer: The IC50 was 0.5 µM.

Question: With `CCCC1(C(=O)O)OCCc2c1[nH]c1c(F)ccc(C(F)(F)F)c21` (centres unmarked) [Example 332, (8-fluoro-5-trifluoromethyl-1-propyl-1,3,4,9-tetrahydropyrano[3,4-b]indol-1-yl)carboxylic acid] as the molecule, how does the IC50 [1] read?
Answer: The IC50 was 14 µM.

Question: What about the IC50 [2] of the same molecule?
Answer: The IC50 was 6.4 µM.

Question: Which results are given for `CCCC1(C(=O)O)OCCc2c1[nH]c1c(C)ccc(C(F)(F)F)c21` (centres unmarked) [Example 333, (5-trifluoromethyl-8-methyl-1-propyl-1,3,4,9-tetrahydropyrano[3,4-b]indol-1-yl)carboxylic acid]?
Answer: IC50 [1]: 7.6 µM; IC50 [2]: 1.3 µM

Question: Which results are given for `CCCC1(C(=O)O)OCCc2c1[nH]c1c(C)ccc(C#N)c21` (centres unmarked) [Example 334, (5-cyano-8-methyl-1-propyl-1,3,4,9-tetrahydropyrano[3,4-b]indol-1-yl)carboxylic acid]?
Answer: IC50 [1]: 5 µM; IC50 [2]: 3 µM

Question: Which results are given for `Cc1ccc(C#N)c2c3c([nH]c12)C(C(=O)O)(C1CCC1)OCC3` (centres unmarked) [Example 338, (5-cyano-1-cyclobutyl-8-methyl-1,3,4,9-tetrahydropyrano[3,4-b]indol-1-yl)carboxylic acid]?
Answer: IC50 [1]: 3.9 µM; IC50 [2]: 3.3 µM
